Tests used:
chymotrypsin = chymotrypsin (Bos taurus, UniProt P00766); test: in vitro; details: for remaining at 0.025 h, 60 μM / remaining at 0.05 h, 60 μM / remaining at 0.075 h, 60 μM / remaining at 0.1 h, 60 μM / remaining at 0.15 h, 60 μM / remaining at 0.25 h, 60 μM / remaining at 0.5 h, 60 μM / remaining at 1 h, 60 μM: isolated enzyme chymotrypsin, pH 7.8, Remaining peak area (%)/chymotrypsin
Protocol: FIG. 18. […] At different time point, 25 μL aliquots was taken out, and 10% (v/v) TFA was added to terminate the reaction.
(§1) Mix by centrifugation at 8000 rpm for 30 seconds.
Arrange a certain volume of 0.05 μg/μL chymotrypsin solution in another sterile EP. Incubate the EP tubes containing peptides and enzymes at 37° C. for 5 min, and add 3 μL of […] solution to each EP tube containing peptides and mix well. Start timing and extract 25 μL of reaction solution at 1.5, 3.0, 4.5, 6.0 and 9.0 min later, respectively. Add 3.75 μL of 10% TFA to terminate the reaction and mix well by centrifugation at 8000 rpm for 30 seconds.
Arrange a certain volume of 0.05 μg/μL chymotrypsin solution in another sterile EP. Incubate the EP tubes containing peptides and enzymes at 37° C. for 5 min, and then add 4.5 μL of chymotrypsin solution to each EP tube containing peptides and mix well. Start timing and extract 25 μL of reaction solution at 1.5, 3.0, 4.5, 6.0, 9.0, 15.0, 30.0, and 60.0 min later, respectively. Add 3.75 μL of 10% TFA to terminate the reaction and mix well by centrifugation at 8000 rpm for 30 seconds.
Referring to the experimental method in Example 5, in vitro stability of salmon Calcitonin analogs with oral administration activity to the enzymatic hydrolysis by trypsin, chymotrypsin and elastase were performed.
Referring to the experimental method in Example 5, in vitro stability of IL-17A inhibitory peptides towards the enzymatic hydrolysis by trypsin, chymotrypsin and elastase were performed.

DPP-IV = DPP-IV (Homo sapiens, UniProt P27487); test: Tolerance of GLP-1 and its analogues to DPP-IV (RP-HPLC remaining peak area); assay type: in vitro ADME; details: peptide 25 μM, DPP-IV 0.5 ng/μL, 37° C.; for Remaining peak area (%)/DPP-IV: 0.0 h; for remaining at 0.5 h, 25 μM / remaining at 2 h, 25 μM / remaining at 4 h, 25 μM / remaining at 8 h, 25 μM / remaining at 12 h, 25 μM: isolated DPP-IV enzyme in buffer, pH 8
Chain of DPP-IV (P27487 whole entry, species assumed): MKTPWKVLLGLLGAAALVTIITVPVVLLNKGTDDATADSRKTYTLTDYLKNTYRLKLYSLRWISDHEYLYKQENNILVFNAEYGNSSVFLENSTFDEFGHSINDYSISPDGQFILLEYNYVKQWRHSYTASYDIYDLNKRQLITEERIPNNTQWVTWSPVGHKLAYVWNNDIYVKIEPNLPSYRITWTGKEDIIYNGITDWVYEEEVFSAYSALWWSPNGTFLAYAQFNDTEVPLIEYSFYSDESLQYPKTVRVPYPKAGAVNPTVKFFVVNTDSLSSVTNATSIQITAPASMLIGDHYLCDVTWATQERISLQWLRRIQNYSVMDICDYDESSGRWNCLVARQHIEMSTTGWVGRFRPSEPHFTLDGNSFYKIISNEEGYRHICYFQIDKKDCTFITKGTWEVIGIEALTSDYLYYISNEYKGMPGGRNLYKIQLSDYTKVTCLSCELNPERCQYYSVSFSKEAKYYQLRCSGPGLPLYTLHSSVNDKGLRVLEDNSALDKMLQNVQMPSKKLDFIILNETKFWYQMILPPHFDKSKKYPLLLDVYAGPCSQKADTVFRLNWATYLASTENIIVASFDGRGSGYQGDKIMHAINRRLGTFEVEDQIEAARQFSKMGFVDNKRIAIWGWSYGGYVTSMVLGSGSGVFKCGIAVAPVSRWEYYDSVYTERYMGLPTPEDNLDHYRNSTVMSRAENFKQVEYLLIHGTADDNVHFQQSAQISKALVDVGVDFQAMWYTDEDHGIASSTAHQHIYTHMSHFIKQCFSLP
Protocol: as §1
(2) Arrange a certain volume of 0.005 μg/μL DPP-IV solution in another sterile EP.

[1] = Stability of GLP-1 and its analogues in human serum; details: 25% (v/v) human serum; for Remaining peak area (%)/human serum: 0.0 h, peptide 0.03 mM, 37° C.; for remaining at 0.5 h, 0.03 mM / remaining at 2 h, 0.03 mM / remaining at 4 h, 0.03 mM / remaining at 8 h, 0.03 mM / remaining at 12 h, 0.03 mM: human, pH 7
Protocol: The amount of the prototype peptide at 0 h was taken as 100%. At different time point, 100 μL aliquots was taken out, and 300 μL precooled anhydrous methanol was added to terminate the reaction. The remaining percentage (%) of the peptide relative to the prototype peptide at that time point was analyzed by reverse phase high performance liquid chromatography. The experiment was performed with three replicates, and data were expressed as “mean±standard deviation”. The sample was subjected to high-speed centrifugation, supernatant extraction, and freeze drying, followed by dissolution in 50% (v/v) methanol/water solution, and analyzed by reverse phase high performance liquid chromatography. The experiment was performed with three replicates, and data were expressed as “mean±standard deviation”.
Invert and mix thoroughly, then leave at −20° C. overnight. At the same time, take three sterile EP tubes and add 25 μL of human serum, 75 μL of 50 mM Tris-HCl buffer (pH7.0), and 300 μL of pre-cold absolute methanol. Invert and mix thoroughly, then leave at −20° C. overnight as a negative control, so as to eliminate the interference of proteins or peptides contained in human serum at the peak time of the target peptide after methanol precipitation.
Arrange a certain volume of human serum in another sterile EP. Incubate the EP tubes containing peptides and serum at 37° C. for 10 min, and add 137.5 μL of human serum to each EP tube containing peptides and mix well. […] Start timing and remove 100 μL of reaction solution at 0.5, 2.0, 4.0, 8.0, and 12.0 h later, respectively. Add 300 μL of pre-cold absolute methanol. Invert and mix thoroughly, then leave at −20° C. overnight. […] There are three replicates at each time point, and the peak area of the peptide at each time point is detected using reverse phase high-performance liquid chromatography (RP-HPLC). The ratio of the remaining peak area of the sample at detection time T (h) to the peak area of the prototype peptide at 0 h is calculated as the remaining percentage (%) of the peptide.

SMILES | remaining at 0.025 h, 60 μM (chymotrypsin) | remaining at 0.05 h, 60 μM (chymotrypsin) | remaining at 0.075 h, 60 μM (chymotrypsin) | remaining at 0.1 h, 60 μM (chymotrypsin) | remaining at 0.15 h, 60 μM (chymotrypsin) | remaining at 0.25 h, 60 μM (chymotrypsin) | remaining at 0.5 h, 60 μM (chymotrypsin) | remaining at 1 h, 60 μM (chymotrypsin) | Remaining peak area (%)/DPP-IV (DPP-IV) | remaining at 0.5 h, 25 μM (DPP-IV) | remaining at 2 h, 25 μM (DPP-IV) | remaining at 4 h, 25 μM (DPP-IV) | remaining at 8 h, 25 μM (DPP-IV) | remaining at 12 h, 25 μM (DPP-IV) | Remaining peak area (%)/human serum [1] | remaining at 0.5 h, 0.03 mM [1] | remaining at 2 h, 0.03 mM [1] | remaining at 4 h, 0.03 mM [1] | remaining at 8 h, 0.03 mM [1] | remaining at 12 h, 0.03 mM [1] | further results
CC[C@H](C)[C@H](NC(=O)[C@H](Cc1ccccc1)NC(=O)[C@H](CCC(=O)O)NC(=O)[C@H](CCCCN)NC(=O)[C@H](C)NC(=O)[C@H](C)NC(=O)[C@H](CCC(N)=O)NC(=O)CNC(=O)[C@H](CCC(=O)O)NC(=O)[C@H](CC(C)C)NC(=O)[C@H](Cc1ccc(O)cc1)NC(=O)[C@H](CO)NC(=O)[C@H](CO)NC(=O)[C@@H](NC(=O)[C@H](CC(=O)O)NC(=O)[C@H](CO)NC(=O)[C@@H](NC(=O)[C@H](Cc1ccccc1)NC(=O)[C@@H](NC(=O)CNC(=O)[C@H](CCC(=O)O)NC(=O)[C@H](C)NC(=O)[C@H](Cc1c[nH]cn1)NC(=O)CNC(=O)CNC(=O)[C@@H](NC(=O)[C@@H]1CCCN1C(=O)[C@@H](NC(=O)CNC(=O)CNC(=O)[C@H](Cc1ccc(O)cc1)NC(=O)[C@@H]1CSSC[C@H](NC(=O)[C@@H](N)CO)C(=O)N[C@@H]([C@@H](C)O)C(=O)N[C@@H](Cc2ccc(O)cc2)C(=O)N[C@@H](CO)C(=O)N[C@@H]([C@@H](C)CC)C(=O)N2CCC[C@H]2C(=O)N2CCC[C@H]2C(=O)N[C@@H](CCC(N)=O)C(=O)N1)[C@@H](C)CC)[C@@H](C)CC)[C@@H](C)O)[C@@H](C)O)C(C)C)C(=O)N[C@@H](C)C(=O)N[C@@H](Cc1c[nH]c2ccccc12)C(=O)N[C@@H](CC(C)C)C(=O)N[C@H](C(=O)N[C@@H](CCCCN)C(=O)NCC(=O)N[C@@H](CCCNC(=N)N)C(=O)NCC(=O)NCC(=O)N[C@@H](CCCCN)C(=O)O)C(C)C [CH4-D-GLP-1] | 84.9 ± 1.6% | 89.6 ± 4.2% | 83.6 ± 0.5% | 86.2 ± 0.7% | 81.1 ± 4.7% | 83.3 ± 1.4% | 84.5 ± 3.7% | 78.6 ± 2% | 100.0 ± 0.0% | 88.5 ± 0.7% | 90 ± 0.9% | 92.4 ± 0.5% | 85.1 ± 0.9% | 88.6 ± 3.7% | 100.0 ± 0.0% | 72.3 ± 0.5% | 34 ± 0.2% | 16.6 ± 0.8% | 4.4 ± 0.2% | 1.8 ± 0.1% | –
CC[C@H](C)[C@H](NC(=O)[C@H](Cc1ccccc1)NC(=O)[C@H](CCC(=O)O)NC(=O)[C@H](CCCCN)NC(=O)[C@H](C)NC(=O)[C@H](C)NC(=O)[C@H](CCC(N)=O)NC(=O)CNC(=O)[C@H](CCC(=O)O)NC(=O)[C@H](CC(C)C)NC(=O)[C@H](Cc1ccc(O)cc1)NC(=O)[C@H](CO)NC(=O)[C@H](CO)NC(=O)[C@@H](NC(=O)[C@H](CC(=O)O)NC(=O)[C@H](CO)NC(=O)[C@@H](NC(=O)[C@H](Cc1ccccc1)NC(=O)[C@@H](NC(=O)CNC(=O)[C@H](CCC(=O)O)NC(=O)[C@H](C)NC(=O)[C@H](Cc1c[nH]cn1)NC(=O)CNC(=O)CNC(=O)[C@@H](NC(=O)[C@@H]1CCCN1C(=O)[C@@H](NC(=O)CN)[C@@H](C)CC)[C@@H](C)CC)[C@@H](C)O)[C@@H](C)O)C(C)C)C(=O)N[C@@H](C)C(=O)N[C@@H](Cc1c[nH]c2ccccc12)C(=O)N[C@@H](CC(C)C)C(=O)N[C@H](C(=O)N[C@@H](CCCCN)C(=O)NCC(=O)N[C@@H](CCCNC(=N)N)C(=O)NCC(=O)NCC(=O)N[C@@H](CCCCN)C(=O)NCC(=O)N[C@@H](CO)C(=O)N[C@H]1CSSC[C@@H](C(=O)N[C@@H](Cc2ccc(O)cc2)C(=O)NCC(=O)O)NC(=O)[C@H](CCC(N)=O)NC(=O)[C@@H]2CCCN2C(=O)[C@@H]2CCCN2C(=O)[C@H]([C@@H](C)CC)NC(=O)[C@H](CO)NC(=O)[C@H](Cc2ccc(O)cc2)NC(=O)[C@H]([C@@H](C)O)NC1=O)C(C)C [D-GLP-1-CH4] | 80.9 ± 1.7% | 78 ± 2.9% | 83.2 ± 0.3% | 83.9 ± 3% | 82.4 ± 3.9% | 78.5 ± 2.1% | 81.3 ± 2.8% | 76.3 ± 2.7% | 100.0 ± 0.0% | 81.6 ± 1.9% | 76.4 ± 4.2% | 80.8 ± 1.4% | 75.1 ± 2.4% | 71 ± 3% | 100.0 ± 0.0% | 106 ± 15.8% | 97.6 ± 5.4% | 83 ± 3.1% | 64 ± 6.8% | 58.2 ± 10% | –
CC[C@H](C)[C@H](NC(=O)[C@H](Cc1ccccc1)NC(=O)[C@H](CCC(=O)O)NC(=O)[C@H](CCCCN)NC(=O)[C@H](C)NC(=O)[C@H](C)NC(=O)[C@H](CCC(N)=O)NC(=O)CNC(=O)[C@H](CCC(=O)O)NC(=O)[C@H](CC(C)C)NC(=O)[C@H](Cc1ccc(O)cc1)NC(=O)[C@H](CO)NC(=O)[C@H](CO)NC(=O)[C@@H](NC(=O)[C@H](CC(=O)O)NC(=O)[C@H](CO)NC(=O)[C@@H](NC(=O)[C@H](Cc1ccccc1)NC(=O)[C@@H](NC(=O)CNC(=O)[C@H](CCC(=O)O)NC(=O)[C@H](C)NC(=O)[C@H](Cc1c[nH]cn1)NC(=O)CNC(=O)CNC(=O)[C@@H](NC(=O)[C@@H]1CCCN1C(=O)[C@@H](NC(=O)CN)[C@@H](C)CC)[C@@H](C)CC)[C@@H](C)O)[C@@H](C)O)C(C)C)C(=O)N[C@@H](C)C(=O)N[C@@H](Cc1c[nH]c2ccccc12)C(=O)N[C@@H](CC(C)C)C(=O)N[C@H](C(=O)N[C@@H](CCCCN)C(=O)NCC(=O)N[C@@H](CCCNC(=N)N)C(=O)NCC(=O)NCC(=O)N[C@@H](CCCCN)C(=O)NCC(=O)N[C@@H](Cc1ccccc1)C(=O)N[C@H]1CSSC[C@@H](C(=O)N[C@@H](Cc2ccc(O)cc2)C(=O)NCC(=O)O)NC(=O)[C@H](CCC(N)=O)NC(=O)[C@@H]2CCCN2C(=O)[C@@H]2CCCN2C(=O)[C@H]([C@@H](C)CC)NC(=O)[C@H](CO)NC(=O)[C@H](Cc2ccc(O)cc2)NC(=O)[C@H]([C@@H](C)O)NC1=O)C(C)C [D-GLP-1-CH10] | 33.4 ± 1.7% | 32.6 ± 0.7% | 28.9 ± 1.1% | 31.9 ± 2.9% | 31.3 ± 0.8% | 30.9 ± 1% | 32.6 ± 0.6% | 36.2 ± 1.4% | 100.0 ± 0.0% | 64.9 ± 3.7% | 66.2 ± 1% | 69.3 ± 3.3% | 70.8 ± 0.4% | 74.4 ± 0.3% | 100.0 ± 0.0% | 98.4 ± 7.3% | 94.6 ± 2.1% | 101 ± 5.5% | 91.6 ± 6.8% | 43.7 ± 2.1% | stability towards chymotrypsin hydrolysis (in words) (chymotrypsin): lower residual amount; serum stability (in words) [1]: more stable in serum

From patent publication US20230416329A1, “A PEPTIDE WITH DISULFIDE BONDS AND INHIBITORY ACTIVITY AGAINST SERINE PROTEASES, DERIVED HYBRID PEPTIDES THEREOF, AND USES THEREOF” (INSTITUTE OF MATERIA MEDICA , CHINESE ACADEMY OF MEDICAL …, priority 2020, published 2023)
